Results on six molecules are retold here after patent US5917053A, “Indole-2,3-dione-3-oxime derivatives, their preparation and use” (Neurosearch A/S, priority 1994, dated 1999).

Molecules are shown by their SMILES.

In test [1] the target is AMPA receptor. In words: AMPA receptor affinity (receptor binding, as described by T. Honore et al.). The conditions noted are these: Neuroscience Letters 54, 27-32 (1985). An excerpt:
In Vitro activity (receptor affinity):
The compounds of the present invention has been tested for their affinity for the AMPA receptor as described by T. Honore et al., Neuroscience Letters 54, 27-32 (1985). IC50 values appear from the following Table 1.

Test [2] deals with cultured mouse cerebral cortex neurons. In words: Inhibition of stimulated 3H-GABA release from cultured cerebral cortex neurons. It is filed as cell-based. Conditions: Cerebral cortex neuron, 37° C., pH 7.4, stimulated 30 sec every 4 min. From the text: The compounds of the invention have also been tested for their ability to inhibit GABA release from cultured mouse cerebral cortex neurons using the following test:
Background: Neurons which express receptors for excitatory amino acids can be depolarized by such compounds and this depolarization will ultimately lead to a release of transmitter substance from the neurons. Cultured neurons obtained from 15-day-old mouse embryo cortex are mainly GABAergic and express all types of excitatory amino acid receptors. This means that they can be stimulated by high potassium or by the excitatory amino acids, NMDA, AMPA and kainate to release their neurotransmitter GABA.
^3 H-GABA may be used to label the GABA transmitter pool in the neurons and the release of ^3 H-GABA from the neurons may be used as a simple functional model for studies of the effects of excitatory amino acids and their antagonists.
Method: Cerebral cortices of 16-day-old mouse embryos are chopped in 0.4×0.4 mm cubes. The tissue is dissociated by mild trypsinization (0.1% (wt/vol) trypsin, 37° C., 15 min) and subsequently inoculated into poly-L-lysine-coated 3-cm Petri dishes containing a slightly modified DMEM (24.5 mM KCI, 30 mM glucose) supplemented with p-aminobenzoate (7 μM), insulin (100 mU/L) and 10% (vol/vol) horse serum. Cells are maintained in culture for 5-7 days with the addition of the antimitotic agent cytosine arbinoside (40 μM) from day 2 in vitro to prevent glial profileration. For further details and references, see Drejer et al. Exp. Brain Res. 47, 259 (1982).
Release experiments are performed using the model described by Drejer et al. Life Sci. 38, 2077 (1986). Cerebral cortex neurons cultured in Petri dishes (30 mm) are added 100 μM γ-vinyl-GABA one hour before the experiment in order to inhibit degradation of GABA in the neurons. 30 min before the experiment 5 μCi ^3 H-GABA is added to each culture and after this preloading period the cell monolayer at the bottom of the dish is covered with a piece of nylon mesh to protect the cells against mechanical damage and to facilitate dispersion of medium over the cell layer. The preloading medium is removed and the Petri dishes are placed in a superfusion system consisting of a peristaltic pump continously delivering thermostated 37° C. superfusion medium HEPES buffered saline (HBS): 10 mM HEPES, 135 mM NaCl, 5 mM KCl, 0.6 mM MgSO4, 1.0 mM CaCl2 and 6 mM D-glucose; pH 7.4) from a reservoir to the top of the slightly tilted Petri dish. The medium is continously collected from the lower part of the dish and delivered to a fraction collector. Initially, the cells are superfused with HBS for 15 min (flow rate 2 ml/min). Then the cells are stimulated for 30 sec every 4 min by changing the superfusion medium from HBS to a corresponding medium containing […].
Test subtances are dissolved in 50% DMSO, 48% ethanol. The final DMSO and ethanol concentration in the assay must not exceed 0.1%.
The stimulated release of ^3 H-GABA (cpm) are corrected for the mean basal release(cpm) before and after stimulation.
The stimulated release in the presence of antagonists are expressed relative to the stimulated release and the IC50 value for the antagonist is calculated (the concentration (μM) of the test substance which inhibit 50% of the stimulated ^3 H-GABA release).

The subject of test [3] is Gerbils. In words: Transient Forebrain Ischemia Model (2-VO Gerbils), global ischaemia, hippocampal damage. It is filed as in vivo, gerbil. Conditions: 30 mg/kg bolus i.v. followed by one hour infusion of 30 mg/kg (total 60 mg/kg) after 4 min occlusion; read four days later; Mann-Whitney Rank Sum Test. As for the experimental part:
The compound, 8-methyl-5-(4-(N,N-dimethylsulphamoyl)phenyl)-6,7,8,9-tetrahydro-1H-pyrrolo[3,2-h]isoquinoline-2,3-dione-3-O-(N-ethylcarbamoyl)oxime has also been tested in the following animal moder of global ischaemia:
Transient Forebrain Ischemia Model (2-VO Gerbils)
Gerbils were anaesthetized with halothane, right and left carotid arteries located and occluded for 4 minutes. Animals were kept warm before and after the operation using heating lamps. During the operation the gerbils were placed on heating plates, body temperature controlled and maintained at 37±0.5° C. Postocclusion, the gerbils were divided in two groups. One group received 30 mg/kg test compound as a bolus injection i.v. followed by a one hour infusion of 30 mg/kg test compound (total dose was 60 mg/kg). The control group received 0.9% NaCl in the same infusion volume as the treated group. Four days later, the animals were sacrificed, brains removed and cooled to -70° C. Thereafter, the brains were sectioned in […] thick sections of which 5-7 with hippocampal tissue were selected and stained with hematoxylin eosine (HE).
Based upon the degree of hippocampal damage, each hippocampus was categorised into one of four groups (Group 1: no damage in the CA1-layer; Group 2: the CA1-layer partly damaged; Group 3: the CA1-layer completely damaged; and Group 4: damage in more than just the CA1-layer). […]

Turning to `CN1CCc2c(-c3ccccc3)cc3c(c2C1)NC(=O)C3=NOC(=O)C(C)(C)C` [8-methyl-5-phenyl-6,7,8,9-tetrahydro-1H-pyrrolo[3,2-h]isoquinoline-2,3-dione-3-O-pivaloyloxime], the IC50 in test [1] is 190 nM; in test [2] it was > 3000 nM.
With `CN1CCc2c(-c3ccc(S(=O)(=O)N(C)C)cc3)cc3c(c2C1)NC(=O)C3=NOC(=O)NC1CCCCC1` [8-methyl-5-(4-(N,N-dimethylsulphamoyl)phenyl)-6,7,8,9-tetrahydro-1H-pyrrolo[3,2-h]isoquinoline-2,3-dione-3-O-(N-cyclohexylcarbamoyl)oxime], the IC50 in test [1] came to 14 nM.
Consider `CC(=O)ON=C1C(=O)Nc2c1cc(-c1ccccc1)c1c2CN(C)CC1` [8-methyl-5-phenyl-6,7,8,9-tetrahydro-1H-pyrrolo[3,2-h]isoquinoline-2,3-dione-3-O-acetyloxime], for which the figures for the IC50 in test [1] and in test [2] were 150 nM and 2900 nM, respectively.
`CCNC(=O)ON=C1C(=O)Nc2c1cc(-c1ccc(S(=O)(=O)N(C)C)cc1)c1c2CN(C)CC1` [8-methyl-5-(4-(N,N-dimethylsulphamoyl)phenyl)-6,7,8,9-tetrahydro-1H-pyrrolo[3,2-h]isoquinoline-2,3-dione-3-O-(N-ethylcarbamoyl)oxime]: the IC50 in test [1] was found to be 38 nM; in test [2], 190 nM. Further, the “neuroprotective effect in the gerbil 2-VO model (ischemic score, hippocampal damage)” value in test [3] is reported as “significant neuroprotective effect”.
As for `CCNC(=O)ON=C1C(=O)Nc2c1cc(-c1ccccc1)c1c2CN(C)CC1` [8-methyl-5-phenyl-6,7,8,9-tetrahydro-1H-pyrrolo[3,2-h]isoquinoline-2,3-dione-3-O-(N-ethylcarbamoyl)oxime], the IC50 in test [1] came to 350 nM; in test [2] it was 1400 nM.
With `CCN1Cc2c(-c3ccccc3)cc3c(c2C1)NC(=O)C3=NOC(C)=O` [7-ethyl-5-phenyl-1,6,7,8-tetrahydrobenzo[2,1-b:3,4-c]dipyrrole-2,3-dione 3-O-acetyloxime], the IC50 stood at 1700 nM in test [1] and 2700 nM in test [2].
